Legend:
Vimentin mRNA = assay: qPCR after YTZ3-15 delivery of siTwist in SUM 1315: Vimentin; assay type: cell-based, human; conditions: delivered via YTZ3-15; after one day
Method: (§1) Cell Culture, Transfection, and Stable Cell Line Production. SUM 1315 breast cancer cells were obtained from ATCC (Manassas, VA). Cells were maintained at 37° C., 5% CO2, and 90% humidity in a tissue culture incubator. Media for SUM 1315 cells consisted of a 50-50 mixture of DMEM and F12 media, supplemented with 5 μg/ml insulin, 10 ng/ml EGF, 5% fetal bovine serum, and 1% penicillin/streptomycin. Cells were passaged using 0.25% trypsin (Genesee Scientific, San Diego, CA) every 2-3 days as they reached confluency. […]
(§2) Quantitative PCR. […] RNA quantity and quality was measured and analyzed (with 260/280 nm and 260/230 nm spectra measurements) using a NanoDrop ND-1000 (Thermo Fisher Scientific, Waltham, MA). […] Quantitative RT-PCR was performed in quadruplicate using Maxima SYBR Green Master Mix (Thermo Fisher Scientific, Waltham, MA) in 25 μl reactions. […] Data were analyzed using Bio-Rad iQ5 software using the 2^−ΔΔ^Ct method and normalized to Actin. […]

TWIST1 = TWIST1 knockdown after Lipofectamine 2000 transfection in SUM 1315; assay type: cell-based, human
Method: as §1, §2
Western Blot. […] Cells were pelleted, lysed in RIPA buffer, and protein concentration was determined using the BCA Assay (Thermo Fisher Scientific, Waltham, MA). […]

Ovcar8-IP tumors = assay: Ovcar8-IP intraperitoneal tumor model in NSG mice, MSN-siRNA with or without cisplatin; assay type: in vivo; conditions: siRNA alone, without cisplatin
Method: Animal Studies. The animal studies conducted in these experiments were done in accordance with a protocol approved by the Institutional Animal Care and Use Committee at the City of Hope Beckman Research Institute. A total of 48 female NOD.Cg-Prkdc^scidIl2rg^tm1Wj1/SzJ (NSG) mice (The Jackson Laboratory, Bar Harbor, ME) were used. Ten week old (on average) mice were administered an intraperitoneal injection (IP) of 2.5×10^6 Ovcar8-IP cells in 200 μl of RPMI media. For all studies, mice were placed into four groups: MSN-siQ, MSN-siQ+cisplatin, MSN-si419H, and MSN-si419H+cisplatin (n=4 or n=8). Previous reports show no cellular uptake without MSNs^14, thus a siRNA-only group was not added to this study.
Bioluminescent imaging of mice (using Xenogen IVIS 100 biophotonic imaging system, STTARR, Toronto, Ontario, Canada) commenced seven days after injection of tumor cells in order to ensure engraftment, and continued once a week for four weeks. Mice were given a 100 μl IP injection of 20 mg/ml D-Luciferin (PerkinElmer, Waltham, MA). Ten minutes after the D-luciferin injection, mice were anesthetized with isoflurane (2%-5%) and placed in the biophotonic imager, and images were taken within two minutes. An alfalfa-free version of the regular rodent diet (alfalfa-free CA-1) was administered to the siQ mice to prevent autofluorescence from the regular diet.
IP injections of MSN+siRNA (siQ fluorescently labeled with ALEXAFLUOR® 647 or si419H) were conducted one week after the inoculation of Ovcar8-IP cells and done once or twice per week for a total of four weeks. Mice received 105 μl of 500 ng/μl MSN complexed with 15 μl of 10 μM siRNA per week, divided into one full or two half doses (n=4 and n=8, respectively). This is equivalent to […] MSN/week. Weekly 3 mg/kg IP cisplatin injections were given starting two weeks after initial inoculation of cells.
At completion of the experiment, all animals were euthanized via CO2 asphyxiation. […]
Statistics. All in vivo data was analyzed using one-way ANOVA with correction for multiple comparisons, comparing all groups to MSN-siQ treatment group. […]

## si419: anti-TWIST siRNA; passenger 5′-GGACAAGCUGAGCAAGAUU-3′ (SEQ ID No: 1), guide 5′-AAUCUUGCUCAGCUUGUCCUU-3′ (SEQ ID No: 2) (listed as RNA, chemistry not fully specified)
Vimentin mRNA
  Vimentin mRNA level: nearly undetectable
TWIST1
  TWIST1 knockdown (protein and mRNA): knockdown of TWIST1
Ovcar8-IP tumors
  change in tumor weight: did not produce a statistically significant change in tumor weight
